This is an account of results in PubChem BioAssay (NCI).

Assay in all cases: DTP human tumour cell line panel, 48 h
In assay [1] the test system is HCC-2998 colon.
Assay [2] relates to NCI-H460 lung.
The subject of assay [3] is SNB-75 CNS.
The test system of assay [4] is MDA-MB-435.
Assay [5] relates to A549 NSCLC.
Assay [6] relates to NCI-H226 lung.
Assay [7] relates to U251 CNS.
Assay [8] concerns HT29 colon.
The test system of assay [9] is UACC-257 melanoma.
For assay [10], the system named is SNB-19 CNS.

Structures are written as SMILES.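 Test compounds were applied to cells in 96-well plates for 48 hours at 5 doses. Abbreviation: GI50, concentration required for 50% inhibition of growth. TGI: total growth inhibition.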 Where only a bound is given, the exact number is not on record here.

By GI50 is commonly meant the concentration at which growth is held to half of that of the control. For orientation: TGI means the concentration giving total growth inhibition. Low readings indicate greater sensitivity of the cells, high ones lower sensitivity of the cells. For the molecule `COc1ccc2[nH]cc(-c3nc(-c4c[nH]c5ncccc45)cs3)c2c1`, the GI50 is 67.3 µM in assay [1]; 3.26 µM in [2]; 2.31 µM in assay [3]; 5.87 µM in assay [4]; 3.4 µM in assay [5]; 3.93 µM in assay [6]. In addition, the GI50 in assay [7] is 3.83 µM. Besides, the TGI in assay [1], in assay [2], in [3], in [4], in [5] and in assay [6] was over 100 µM each time. The molecule also displayed a TGI in assay [7] of over 100 µM.
In the case of `CCCn1c(N)c(C(=O)N/N=C(/C)c2cc3cccc(OC)c3o2)sc1=S`, the GI50 in [8] was 16.4 µM; in [2] it was 17.7 µM; in assay [3], 30.1 µM; in [4] it was 56.6 µM; in assay [5], 12.5 µM; in assay [6], 45.2 µM. Also, the GI50 was 18.3 µM in assay [7], 23.2 µM in assay [9] and 30.2 µM in assay [10]. Further, the total growth inhibition concentration (TGI) is over 100 µM in assay [8]; over 100 µM in assay [2]; 82.3 µM in assay [3]; over 100 µM in assay [4]; over 100 µM in [5]; over 100 µM in assay [6]. Also, the TGI is 55.5 µM in assay [7], over 100 µM in assay [9] and over 100 µM in assay [10].
On to `CC(=O)OC12c3ccccc3-c3ccccc3C1C1C(=O)N(C)C(=O)C12Cl` (stereo not drawn), for which the TGI in assay [1], in [8], in assay [2], in assay [3], in assay [4] and in assay [6] was over 10 µM in each case. Also, the total growth inhibition concentration (TGI) in assay [7], in assay [9] and in assay [10] was over 10 µM throughout.
With `CCOc1ccc2nc(S/C(=C/C=C(C#N)C#N)c3ccc(C)cc3)sc2c1`, the GI50 in assay [1] is 25.1 µM; in assay [8] it was 4.71 µM; in [2], 22.7 µM; in assay [4] it was 20.7 µM; in assay [5], 46.7 µM; in [6], 20.3 µM. Further, the GI50 in assay [7] was 29.4 µM; in assay [9] it was over 100 µM; in assay [10], over 100 µM. For the same molecule, the TGI was 53.6 µM in assay [1]; over 100 µM in assay [8]; 57.9 µM in assay [2]; 59.4 µM in [4]; over 100 µM in [5]; 42.4 µM in assay [6]. Moreover, the TGI in assay [7], in assay [9] and in [10] was over 100 µM in each case.
Take `CC(CC(=O)O)C(C(=O)O)C(=O)O` (stereo not drawn): the TGI in assay [8], in [2], in assay [3], in [4], in assay [5] and in assay [6] was over 100 µM in each case. Further, the TGI in assay [7], in assay [9] and in assay [10] was over 100 µM throughout.
For the molecule `Cc1cn2c(/C=C3\C(=O)Nc4ccc(O)cc43)c(-c3ccc(Cl)cc3)nc2s1`, the GI50 was 18.1 µM in [8]; 15.5 µM in assay [2]; 6.27 µM in assay [3]; 17.6 µM in assay [4]; 19.1 µM in assay [5]; 18.5 µM in assay [6]. Also, the GI50 in assay [7] is 14.3 µM; in assay [9], 21.3 µM; in assay [10] it was 15.2 µM. The TGI in assay [8] is 56.2 µM; in [2], 45.3 µM; in [3] it was 23.7 µM; in assay [4] it was 88.8 µM; in assay [5] it was over 100 µM; in assay [6] it was 51 µM. Also, the figures for the TGI in assay [7], in assay [9] and in [10] were 28.9 µM, over 100 µM and 39.1 µM, respectively.
Regarding `C1CSCCSCCS1`, the TGI in [1], in [8], in [2], in [3], in assay [4] and in assay [5] was over 100 µM in each case. Further, the TGI in [7], in assay [9] and in [10] was over 100 µM in each case.
On to `COC12C=C/C(=C(/C(=O)OCc3ccncc3)C(=O)CCCCCCCCC3(OC)C=C/C(=C(/C(=O)OCc4ccncc4)C(=O)CCCCCCCC1)O3)O2`, for which the GI50 in assay [1] was 0.683 µM; in assay [8], 0.721 µM; in assay [2] it was 0.915 µM; in assay [3], 0.779 µM; in assay [4], 0.121 µM; in [5] it was 0.979 µM. In addition, the values for the GI50 in assay [7], in assay [9] and in assay [10] were 0.5 µM, 1.14 µM and 1.28 µM, respectively. Also, the TGI in [1] amounted to 1.39 µM; in assay [8] it was 4.79 µM; in assay [2], 1.98 µM; in assay [3], 1.97 µM; in [4], 0.312 µM; in [5], 2.8 µM. Further, the figures for the TGI in [7], in [9] and in [10] were 1.46 µM, 4.49 µM and 7.17 µM, respectively.
As for `O=c1cc2oc3cc(O)c(O)cc3c(-c3ccccc3O)c-2cc1O`, the GI50 was 44.4 µM in [8]; 21.5 µM in assay [2]; 3.81 µM in assay [3]; 4.57 µM in [4]; 28.5 µM in [5]; 14.4 µM in assay [6]. In addition, the GI50 is 4.6 µM in assay [7], 20.4 µM in assay [9] and 9.65 µM in [10]. The TGI in assay [8] was over 100 µM; in assay [2], 82.6 µM; in assay [3] it was over 100 µM; in [4] it was over 100 µM; in assay [5] it was over 100 µM; in assay [6], over 100 µM. Also, the TGI in assay [7], in assay [9] and in [10] was over 100 µM in each case.
Turning to `COC1C(O)=C2C(=O)O/C(C)=C/C=C/C=C/C=C\CC(c3ccccc3)NC(=O)\C=C/C=C\C=C\C=C\[C@@]2(C)[C@@H]1O` (stereo partly drawn), the TGI in assay [1] was determined as 0.586 µM; in assay [8], 0.0531 µM; in assay [3] it was 0.0503 µM; in assay [4] it was 0.044 µM; in assay [5], 0.0445 µM; in [6] it was 0.273 µM. In addition, the TGI is 0.0195 µM in assay [7], 0.165 µM in assay [9] and 0.141 µM in [10].
Take `CCOC(=O)C(C)(C)Oc1ccc2c(C)c(-c3ccc(Cl)cc3)c(=O)oc2c1`: the TGI in assay [1] was over 100 µM; in [8], 62.7 µM; in assay [2] it was over 100 µM; in [3], over 100 µM; in [5] it was over 100 µM; in assay [6], 80.6 µM. In addition, the TGI in assay [7], in assay [9] and in [10] was over 100 µM each time.
Regarding `O=C(NCCCCN=c1cccccc1NCCCCNC(=O)OCc1ccccc1)OCc1ccccc1`, the total growth inhibition concentration (TGI) was 32.1 µM in assay [1]; 18.7 µM in [8]; 26.4 µM in assay [2]; 39.6 µM in assay [3]; 74.6 µM in assay [5]; 32.1 µM in [6]. The total growth inhibition concentration (TGI) in assay [7] worked out at 32.1 µM; in assay [9] it was 29.3 µM; in assay [10] it was 79.8 µM.
With `Cc1ccc(S(=O)(=O)N/N=C/c2oc(-c3ccncc3)c(-c3ccncc3)c2[N+](=O)[O-])cc1`, the TGI in assay [1], in [8], in [2], in [3], in assay [5] and in assay [6] was over 100 µM in each case. Further, the total growth inhibition concentration (TGI) in assay [7], in assay [9] and in assay [10] was over 100 µM throughout.
Consider `Ic1ccc(-n2nnnc2-c2cnoc2-c2ccccc2)cc1`, for which the GI50 in assay [8] is over 100 µM; in assay [2], 35 µM; in assay [3] it was over 56.8 µM; in assay [4] it was 24.5 µM; in [5], over 58.4 µM; in assay [6], 43 µM. Also, the GI50 in assay [7] was 44.8 µM; in [9], over 58.5 µM; in assay [10], over 63.1 µM. Also, the TGI was over 100 µM in assay [8]; over 100 µM in [2]; over 100 µM in [3]; over 57.5 µM in assay [4]; over 100 µM in assay [5]; over 78.9 µM in assay [6]. The TGI in [7], in [9] and in assay [10] was over 100 µM in each case.
For `CCOC(=O)NC(=O)c1cn(CCOC(=O)NCCCCCCNC(=O)OCCn2cc(C(=O)NC(=O)OCC)c(=O)[nH]c2=O)c(=O)[nH]c1=O`, the TGI in assay [1], in assay [8], in assay [2], in assay [3], in assay [5] and in assay [6] was over 100 µM in each case. Also, the TGI in assay [7], in assay [9] and in [10] was over 100 µM each time.
For the molecule `O=[N+]([O-])c1ccc(-n2nnc(C3=NCCN3)c2-c2ccc(Cl)cc2)cc1`, the TGI in assay [1], in [8], in [2], in assay [3], in assay [5] and in assay [6] was over 100 µM each time. The TGI in [7], in assay [9] and in [10] was over 100 µM throughout.
